Laboratory results as given in patent US11098038B2, “Imidazole-based anticancer agents and derivatives thereof, and methods of making and using same” (The University of Toledo, priority 2017, dated 2021).

How the values were obtained:
PC-3 = experiment: NCI 60 screen, PC-3; format: cell-based; settings: Homo sapiens, Prostatic
Experimental: (§1) The compounds synthesized were tested at the National Cancer Institute (NCI) for anti-proliferative activity in the 60 human tumor cell line assay.

OVCAR-4 = experiment: NCI 60 screen, OVCAR-4; format: cell-based; settings: Homo sapiens, Ovarian
Experimental: as §1

T-47D = experiment: NCI 60 screen, T-47D; format: cell-based; settings: Homo sapiens, T47D, Breast
Experimental: as §1

SR = experiment: NCI 60 screen, SR; format: cell-based; settings: Homo sapiens, Leukemia
Experimental: as §1

IGROV1 = experiment: NCI 60 screen, IGROV1; format: cell-based; settings: Homo sapiens, IGROV-1, Ovarian
Experimental: as §1

NCI-H226 = experiment: NCI 60 screen, NCI-H226; format: cell-based; settings: Homo sapiens, Non-Small Cell Lung
Experimental: as §1

CCRF-CEM = experiment: NCI 60 screen, CCRF-CEM; format: cell-based; settings: Homo sapiens, Leukemia
Experimental: as §1

SNB-75 = experiment: NCI 60 screen, SNB-75; format: cell-based; settings: Homo sapiens, CNS
Experimental: as §1

RPMI-8226 = experiment: NCI 60 screen, RPMI-8226; format: cell-based; settings: Homo sapiens, Leukemia
Experimental: as §1

A549/ATCC = experiment: NCI 60 screen, A549/ATCC; format: cell-based; settings: Homo sapiens, Non-Small Cell Lung
Experimental: as §1

NCI-H522 = experiment: NCI 60 screen, NCI-H522; format: cell-based; settings: Homo sapiens, Non-Small Cell Lung
Experimental: as §1

U251 = experiment: NCI 60 screen, U251; format: cell-based; settings: Homo sapiens, U-251, CNS
Experimental: as §1

NCI-460 = experiment: NCI 60 screen, NCI-460; format: cell-based; settings: Homo sapiens, Non-Small Cell Lung
Experimental: as §1

M14 = experiment: NCI 60 screen, M14; format: cell-based; settings: Homo sapiens, Melanoma
Experimental: as §1

BT-549 = experiment: NCI 60 screen, BT-549; format: cell-based; settings: Homo sapiens, Breast
Experimental: as §1

HL-60(TB) = experiment: NCI 60 screen, HL-60(TB); format: cell-based; settings: Homo sapiens, Leukemia
Experimental: as §1

MALME-3M = experiment: NCI 60 screen, MALME-3M; format: cell-based; settings: Homo sapiens, Melanoma
Experimental: as §1

HCT15 = experiment: NCI 60 screen, HCT15; format: cell-based; settings: Homo sapiens, HCT-15, Colon
Experimental: as §1

ACHN = experiment: NCI 60 screen, ACHN; format: cell-based; settings: Homo sapiens, Renal
Experimental: as §1

UACC-62 = experiment: NCI 60 screen, UACC-62; format: cell-based; settings: Homo sapiens, Melanoma
Experimental: as §1

SK-OV-3 = experiment: NCI 60 screen, SK-OV-3; format: cell-based; settings: Homo sapiens, Ovarian
Experimental: as §1

SNB-19 = experiment: NCI 60 screen, SNB-19; format: cell-based; settings: Homo sapiens, CNS
Experimental: as §1

RXF393 = experiment: NCI 60 screen, RXF393; format: cell-based; settings: Homo sapiens, RXF 393, Renal
Experimental: as §1

SK-MEL-2 [1] = experiment: NCI 60 screen, SK-MEL-2 (first line); format: cell-based; settings: Homo sapiens; Melanoma, SK-MEL-2 (first of two lines so named, r37)
Experimental: as §1

HCT-116 = experiment: NCI 60 screen, HCT-116; format: cell-based; settings: Homo sapiens, Colon
Experimental: as §1

TK-10 = experiment: NCI 60 screen, TK-10; format: cell-based; settings: Homo sapiens, Renal
Experimental: as §1

K-562 = experiment: NCI 60 screen, K-562; format: cell-based; settings: Homo sapiens, K562, Leukemia
Experimental: as §1

LOX IMVI = experiment: NCI 60 screen, LOX IMVI; format: cell-based; settings: Homo sapiens, Melanoma
Experimental: as §1

SK-MEL-2 [2] = experiment: NCI 60 screen, SK-MEL-2 (second line); format: cell-based; settings: Homo sapiens; Melanoma, SK-MEL-2 (second of two lines so named, r38)
Experimental: as §1

HT29 = experiment: NCI 60 screen, HT29; format: cell-based; settings: Homo sapiens, HT-29, Colon
Experimental: as §1

SW-620 = experiment: NCI 60 screen, SW-620; format: cell-based; settings: Homo sapiens, Colon
Experimental: as §1

HOP-62 = experiment: NCI 60 screen, HOP-62; format: cell-based; settings: Homo sapiens, Non-Small Cell Lung
Experimental: as §1

786-0 = experiment: NCI 60 screen, 786-0; format: cell-based; settings: Homo sapiens, Renal
Experimental: as §1

MDA-MB-231/ATCC = experiment: NCI 60 screen, MDA-MB-231/ATCC; format: cell-based; settings: Homo sapiens, Breast
Experimental: as §1

SK-MEL-5 = experiment: NCI 60 screen, SK-MEL-5; format: cell-based; settings: Homo sapiens, Melanoma
Experimental: as §1

NCI-H23 = experiment: NCI 60 screen, NCI-H23; format: cell-based; settings: Homo sapiens, Non-Small Cell Lung
Experimental: as §1

MDA-MB-435 = experiment: NCI 60 screen, MDA-MB-435; format: cell-based; settings: Homo sapiens, Melanoma
Experimental: as §1

MOLT-4 = experiment: NCI 60 screen, MOLT-4; format: cell-based; settings: Homo sapiens, Leukemia
Experimental: as §1

DU-145 = experiment: NCI 60 screen, DU-145; format: cell-based; settings: Homo sapiens, Prostatic
Experimental: as §1

HS 578T = experiment: NCI 60 screen, HS 578T; format: cell-based; settings: Homo sapiens, Breast
Experimental: as §1

UACC-257 = experiment: NCI 60 screen, UACC-257; format: cell-based; settings: Homo sapiens, Melanoma
Experimental: as §1

SF-268 = experiment: NCI 60 screen, SF-268; format: cell-based; settings: Homo sapiens, CNS
Experimental: as §1

EKVX = experiment: NCI 60 screen, EKVX; format: cell-based; settings: Homo sapiens, Non-Small Cell Lung
Experimental: as §1

SN12C = experiment: NCI 60 screen, SN12C; format: cell-based; settings: Homo sapiens, Renal
Experimental: as §1

COLO 205 = experiment: NCI 60 screen, COLO 205; format: cell-based; settings: Homo sapiens, Colon
Experimental: as §1

KM12 = experiment: NCI 60 screen, KM12; format: cell-based; settings: Homo sapiens, Colon
Experimental: as §1

OVCAR-5 = experiment: NCI 60 screen, OVCAR-5; format: cell-based; settings: Homo sapiens, Ovarian
Experimental: as §1

SF-295 = experiment: NCI 60 screen, SF-295; format: cell-based; settings: Homo sapiens, CNS
Experimental: as §1

SF-539 = experiment: NCI 60 screen, SF-539; format: cell-based; settings: Homo sapiens, CNS
Experimental: as §1

HCC-2998 = experiment: NCI 60 screen, HCC-2998; format: cell-based; settings: Homo sapiens, Colon
Experimental: as §1

MDA-MB-468 = experiment: NCI 60 screen, MDA-MB-468; format: cell-based; settings: Homo sapiens, Breast
Experimental: as §1

HOP-92 = experiment: NCI 60 screen, HOP-92; format: cell-based; settings: Homo sapiens, Non-Small Cell Lung
Experimental: as §1

UO-31 = experiment: NCI 60 screen, UO-31; format: cell-based; settings: Homo sapiens, Renal
Experimental: as §1

MCF7 = experiment: NCI 60 screen, MCF7; format: cell-based; settings: Homo sapiens, Breast
Experimental: as §1

NCI/ADR-RES = experiment: NCI 60 screen, NCI/ADR-RES; format: cell-based; settings: Homo sapiens, Ovarian
Experimental: as §1

OVCAR-8 = experiment: NCI 60 screen, OVCAR-8; format: cell-based; settings: Homo sapiens, Ovarian
Experimental: as §1

NCI-322M = experiment: NCI 60 screen, NCI-322M; format: cell-based; settings: Homo sapiens, Non-Small Cell Lung
Experimental: as §1

OVCAR-3 = experiment: NCI 60 screen, OVCAR-3; format: cell-based; settings: Homo sapiens, Ovarian
Experimental: as §1

A498 = experiment: NCI 60 screen, A498; format: cell-based; settings: Homo sapiens, Renal
Experimental: as §1

Cn1ccnc1C(=O)/C=C/c1ccc(CC(=O)Nc2ccccc2)cc1 [Compound 27, (E)-2-(4-(3-(1-methyl-1H-imidazol-2-yl)-3-oxoprop-1-en-1-yl)phenyl)-N-phenylacetamide]
GI50 (PC-3): 3.29 µM
GI50 (OVCAR-4): 4.12 µM
GI50 (T-47D): 5.23 µM
GI50 (SR): 1.16 µM
GI50 (IGROV1): 2.11 µM
GI50 (NCI-H226): 8.59 µM
GI50 (CCRF-CEM): 2.37 µM
GI50 (SNB-75): 25 µM
GI50 (RPMI-8226): 1.45 µM
GI50 (A549/ATCC): 6.6 µM
GI50 (NCI-H522): 3.2 µM
GI50 (U251): 1.57 µM
GI50 (NCI-460): 2.32 µM
GI50 (M14): 4.55 µM
GI50 (BT-549): 2.95 µM
GI50 (HL-60(TB)): 1.57 µM
GI50 (MALME-3M): 5.93 µM
GI50 (HCT15): 1.25 µM
GI50 (ACHN): 5.24 µM
GI50 (UACC-62): 4.13 µM
GI50 (SK-OV-3): 9.3 µM
GI50 (SNB-19): 1.9 µM
GI50 (RXF393): 3.86 µM
GI50 (SK-MEL-2 [1]): 5.06 µM
GI50 (HCT-116): 1.68 µM
GI50 (TK-10): 7.44 µM
GI50 (K-562): 1.07 µM
GI50 (LOX IMVI): 1.03 µM
GI50 (SK-MEL-2 [2]): 5.69 µM
GI50 (HT29): 2.4 µM
GI50 (SW-620): 2.75 µM
GI50 (HOP-62): 3.75 µM
GI50 (786-0): 2.67 µM
GI50 (MDA-MB-231/ATCC): 2.37 µM
GI50 (SK-MEL-5): 4.18 µM
GI50 (NCI-H23): 3.24 µM
GI50 (MDA-MB-435): 4.3 µM
GI50 (MOLT-4): 4.3 µM
GI50 (DU-145): 1.1 µM
GI50 (HS 578T): 1.42 µM
GI50 (UACC-257): 6.98 µM
GI50 (SF-268): 3.75 µM
melting point: 184 to 186 °C
GI50 (EKVX): 6.28 µM
GI50 (SN12C): 3.84 µM
GI50 (COLO 205): 3.77 µM
GI50 (KM12): 3.39 µM
GI50 (OVCAR-5): 4.19 µM
GI50 (SF-295): 5.44 µM
GI50 (SF-539): 2.43 µM
GI50 (HCC-2998): 4.42 µM
GI50 (MDA-MB-468): 1.71 µM
GI50 (HOP-92): 6.63 µM
GI50 (UO-31): 2.77 µM
GI50 (MCF7): 1.13 µM
GI50 (NCI/ADR-RES): 7.54 µM
GI50 (OVCAR-8): 6.44 µM
GI50 (NCI-322M): 2.57 µM
GI50 (OVCAR-3): 1.87 µM
GI50 (A498): 6.08 µM
